Reference: patent EP2987533B1, “7-substituted piperazin-1-yl fluoroquinolone compounds, their use in the treatment of cancer, pharmaceutical compositions and a method for preparation” (priority 2014, dated 2016)

Columns and labels:
786-0 [1] = assay: NCI five-dose SRB growth assay; assay type: cell-based; conditions: Homo sapiens; 786-0 (Renal Cancer), 48 h
SNB-19 = assay: NCI five-dose SRB growth assay; assay type: cell-based; conditions: Homo sapiens; SNB-19 (CNS Cancer), 48 h
SF-539 = assay: NCI one-dose SRB growth assay; assay type: cell-based; conditions: Homo sapiens; SF-539 (CNS Cancer), 10^-5 M, 48 h; read-out: % Growth Inhibition (GI %)
Summary of the method: (§1)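 Single dose 10^-5M, 48 h exposure. SRB protein staining, absorbance read. Output: % growth vs untreated controls.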

PRMI-8226 = assay: NCI one-dose SRB growth assay; assay type: cell-based; conditions: Homo sapiens; PRMI-8226 (Leukemia), 10^-5 M, 48 h; read-out: % Growth Inhibition (GI %)
Summary of the method: (§2)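 A one-concentration test (10^-5M) is run for 48 h. Protein-bound SRB dye is quantified by absorbance, and growth of treated cells is expressed relative to untreated cells, as a percentage.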

HOP-92 = assay: NCI one-dose SRB growth assay; assay type: cell-based; conditions: Homo sapiens; HOP-92 (Non-Small Cell Lung Cancer), 10^-5 M, 48 h; read-out: % Growth Inhibition (GI %)
Summary of the method: as §1

MCF7 = assay: NCI one-dose SRB growth assay; assay type: cell-based; conditions: Homo sapiens; MCF7 (Breast Cancer), 10^-5 M, 48 h; read-out: % Growth Inhibition (GI %)
Summary of the method: as §1

786-0 [2] = assay: NCI one-dose SRB growth assay; assay type: cell-based; conditions: Homo sapiens; 786-0 (Renal Cancer), 10^-5 M, 48 h; read-out: % Growth Inhibition (GI %)
Summary of the method: as §1

RXF 393 = assay: NCI one-dose SRB growth assay; assay type: cell-based; conditions: Homo sapiens; RXF 393 (Renal Cancer), 10^-5 M, 48 h; read-out: % Growth Inhibition (GI %)
Summary of the method: as §1

MDA-MB-435 = assay: NCI one-dose SRB growth assay; assay type: cell-based; conditions: Homo sapiens; MDA-MB-435 (Melanoma), 10^-5 M, 48 h; read-out: % Growth Inhibition (GI %)
Summary of the method: as §1

NCI-H23 = assay: NCI one-dose SRB growth assay; assay type: cell-based; conditions: Homo sapiens; NCI-H23 (Non-Small Cell Lung Cancer), 10^-5 M, 48 h; read-out: % Growth Inhibition (GI %)
Summary of the method: as §1

T-47D = assay: NCI one-dose SRB growth assay; assay type: cell-based; conditions: Homo sapiens, T47D; T-47D (Breast Cancer), 10^-5 M, 48 h; read-out: % Growth Inhibition (GI %)
Summary of the method: as §1

OVCAR-5 = assay: NCI one-dose SRB growth assay; assay type: cell-based; conditions: Homo sapiens; OVCAR-5 (Ovarian Cancer), 10^-5 M, 48 h; read-out: % Growth Inhibition (GI %)
Summary of the method: as §1

PC-3 = assay: NCI one-dose SRB growth assay; assay type: cell-based; conditions: Homo sapiens; PC-3 (Prostate Cancer), 10^-5 M, 48 h; read-out: % Growth Inhibition (GI %)
Summary of the method: as §2

IGROV1 = assay: NCI one-dose SRB growth assay; assay type: cell-based; conditions: Homo sapiens, IGROV-1; IGROV1 (Ovarian Cancer), 10^-5 M, 48 h; read-out: % Growth Inhibition (GI %)
HOP-62 = assay: NCI one-dose SRB growth assay; assay type: cell-based; conditions: Homo sapiens; HOP-62 (Non-Small Cell Lung Cancer), 10^-5 M, 48 h; read-out: % Growth Inhibition (GI %)
Summary of the method: as §1

SK-MEL-2 [3] = assay: NCI one-dose SRB growth assay; assay type: cell-based; conditions: Homo sapiens; SK-MEL-2 (Melanoma), 10^-5 M, 48 h; read-out: % Growth Inhibition (GI %)
CAKI-1 = assay: NCI one-dose SRB growth assay; assay type: cell-based; conditions: Homo sapiens; CAKI-1 (Renal Cancer), 10^-5 M, 48 h; read-out: % Growth Inhibition (GI %)
Summary of the method: as §1

BT-549 = assay: NCI five-dose SRB growth assay; assay type: cell-based; conditions: Homo sapiens; BT-549 (Breast Cancer), 48 h
A498 = assay: NCI five-dose SRB growth assay; assay type: cell-based; conditions: Homo sapiens; A498 (Renal Cancer), 48 h
HL-60(TB) = assay: NCI five-dose SRB growth assay; assay type: cell-based; conditions: Homo sapiens; HL-60(TB) (Leukemia), 48 h
prostate cancer = assay: NCI five-dose SRB assay, subpanel average; conditions: 48 h
HCT-15 = assay: NCI five-dose SRB growth assay; assay type: cell-based; conditions: Homo sapiens; HCT-15 (Colon Cancer), 48 h
SK-OV-3 = assay: NCI five-dose SRB growth assay; assay type: cell-based; conditions: Homo sapiens; SK-OV-3 (Ovarian Cancer), 48 h
ACHN = assay: NCI five-dose SRB growth assay; assay type: cell-based; conditions: Homo sapiens; ACHN (Renal Cancer), 48 h
M14 = assay: NCI five-dose SRB growth assay; assay type: cell-based; conditions: Homo sapiens; M14 (Melanoma), 48 h
TK-10 = assay: NCI five-dose SRB growth assay; assay type: cell-based; conditions: Homo sapiens; TK-10 (Renal Cancer), 48 h
SN12C = assay: NCI five-dose SRB growth assay; assay type: cell-based; conditions: Homo sapiens; SN12C (Renal Cancer), 48 h
breast cancer = assay: NCI five-dose SRB assay, subpanel average; conditions: 48 h
SK-MEL-2 [4] = assay: NCI five-dose SRB growth assay; assay type: cell-based; conditions: Homo sapiens; SK-MEL-2 (Melanoma), 48 h
[5] = Homo sapiens, read-out: GI50 (median growth inhibitory)
[6] = Homo sapiens, read-out: LC50 (median lethal)

## CCn1cc(C(=O)O)c(=O)c2cc(F)c(N3CCN(S(=O)(=O)c4cccc5ccccc45)CC3)cc21 [Compound 7a]
786-0 [1]
  GI50: 4.5 µM
SNB-19
  GI50: 3.47 µM
SF-539
  inhibition at 10 µM: 82.6%
PRMI-8226
  inhibition at 10 µM: 93.5%
HOP-92
  inhibition at 10 µM: > 100%
MCF7
  inhibition at 10 µM: 85.4%
786-0 [2]
  inhibition at 10 µM: 75.7%
RXF 393
  inhibition at 10 µM: 71%
MDA-MB-435
  inhibition at 10 µM: 88.6%
NCI-H23
  inhibition at 10 µM: 99.9%
T-47D
  inhibition at 10 µM: 94.7%
OVCAR-5
  inhibition at 10 µM: 84.5%
PC-3
  inhibition at 10 µM: 92.2%
IGROV1
  inhibition at 10 µM: 86.3%
HOP-62
  inhibition at 10 µM: 84.9%
SK-MEL-2 [3]
  inhibition at 10 µM: 91.2%
CAKI-1
  inhibition at 10 µM: 99.1%
BT-549
  GI50: 3.7 µM
A498
  GI50: 2.74 µM
HL-60(TB)
  GI50: 2.58 µM
Prostate cancer; [5]
  GI50: 3.71 µM
Prostate cancer; [6]
  CC50: > 100 µM
Prostate cancer; average over prostate cancer subpanel, five concentrations
  TGI (total growth inhibitory): c (Compounds showed values > 100µM)
HCT-15
  GI50: 3.15 µM
SK-OV-3
  GI50: 3.11 µM
ACHN
  GI50: 2.88 µM
M14
  GI50: 4.37 µM
TK-10
  GI50: 7.6 µM
SN12C
  GI50: 2.59 µM
Breast cancer; [5]
  GI50: 2.81 µM
Breast cancer; [6]
  CC50: > 100 µM
Breast cancer; average over breast cancer subpanel, five concentrations
  TGI (total growth inhibitory): 38.49 µM
SK-MEL-2 [4]
  GI50: 3.55 µM
